The numbers were not newly measured in patent US6716451B1 (Soft Gel Technologies, Inc., priority 1999, dated 2004), which cites them from elsewhere.

Where two headings read alike, the source gives them in different places.

The conditions of data set [1]: subjects taking at least 100 IU daily; more than 12,000 adults.
The test system of data set [2] is human breast cancer cell. The note with it: in vitro.

As to Vitamin E, the adverse effects result is given as “without any adverse effects” (50 mg/day for 1 to 8.2 years, cardiovascular clinical studies) and “did not show any adverse effects” (oral 50 to 400 IU per day, double-blind clinical studies). In addition, the “decrease in heart disease risk” value in data set [1] is 40%.
In the case of `CC(C)=CCC/C(C)=C/CC/C(C)=C/CC[C@]1(C)CCc2cc(O)c(C)c(C)c2O1` [γ-tocotrienol], the “inhibition of growth of human breast cancer cells compared with Tamoxifen” value in data set [2] is reported as “more effectively than the popular breast cancer drug, Tamoxifen”.
